These results are taken from BindingDB's records for doi:10.1111/cbdd.12708 (North-West University, 2016).

The target in test [1] is T1, Amine oxidase [flavin-containing] A (Homo sapiens, UniProt P21397).
T1 sequence (P21397 whole entry): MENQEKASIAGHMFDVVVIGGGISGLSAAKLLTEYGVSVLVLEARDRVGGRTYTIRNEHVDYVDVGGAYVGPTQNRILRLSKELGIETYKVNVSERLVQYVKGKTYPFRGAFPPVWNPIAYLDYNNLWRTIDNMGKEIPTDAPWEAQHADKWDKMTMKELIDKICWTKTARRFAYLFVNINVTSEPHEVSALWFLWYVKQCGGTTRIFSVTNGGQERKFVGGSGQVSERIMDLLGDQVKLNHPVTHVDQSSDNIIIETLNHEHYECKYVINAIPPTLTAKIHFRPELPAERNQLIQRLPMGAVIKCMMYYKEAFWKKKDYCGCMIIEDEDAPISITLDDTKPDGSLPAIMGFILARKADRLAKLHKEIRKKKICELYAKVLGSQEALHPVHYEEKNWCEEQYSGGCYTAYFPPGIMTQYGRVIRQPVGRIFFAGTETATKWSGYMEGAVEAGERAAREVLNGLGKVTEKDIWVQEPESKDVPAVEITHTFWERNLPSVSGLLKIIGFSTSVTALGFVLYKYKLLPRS
In words: MAO Inhibition Assay. Here is the method: (§1) The protocol for measuring IC50 values for the inhibition of MAO-A and MAO-B has been reported in detail in a recent publication (26). The recombinant human MAO enzymes were used, and kynuramine served as non-selective MAO substrate. The MAOs oxidize kynuramine to ultimately yield a fluorescent metabolite, 4-hydroxyquinoline, which was measured by fluorescence spectrophotometry (kex = 310; kem = 400 nm).

The target in a further test is T2, Amine oxidase (Homo sapiens, UniProt Q8TBI1).
T2 sequence (Q8TBI1 whole entry): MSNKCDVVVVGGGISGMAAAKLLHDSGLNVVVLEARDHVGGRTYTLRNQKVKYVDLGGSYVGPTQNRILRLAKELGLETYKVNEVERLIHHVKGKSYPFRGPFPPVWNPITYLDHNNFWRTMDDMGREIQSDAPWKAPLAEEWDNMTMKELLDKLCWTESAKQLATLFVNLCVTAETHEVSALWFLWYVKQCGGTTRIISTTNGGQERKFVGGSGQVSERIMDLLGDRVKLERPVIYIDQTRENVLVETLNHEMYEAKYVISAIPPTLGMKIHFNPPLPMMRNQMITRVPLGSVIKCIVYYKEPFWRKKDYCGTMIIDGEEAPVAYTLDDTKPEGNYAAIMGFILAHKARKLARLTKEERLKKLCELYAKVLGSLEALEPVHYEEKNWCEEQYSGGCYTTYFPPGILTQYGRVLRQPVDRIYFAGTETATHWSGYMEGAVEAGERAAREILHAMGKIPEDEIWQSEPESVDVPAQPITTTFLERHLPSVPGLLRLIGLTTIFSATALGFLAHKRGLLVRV
In words: MAO Inhibition Assay. As for the experimental part: as §1

One may read the IC50 as the concentration that inhibits the measured activity by half. A lower IC50 goes with inhibition by little substance. For `COC1=CC(=O)c2ccccc2C1=O`, the figures for the IC50 (in test [1]; on Amine oxidase) were 20.4 µM and 24.8 µM, respectively.
The matching figures for `CC1=CC(=O)c2c(O)cccc2C1=O`: 4.91 µM and 1.09 µM.
Take `O=C1C=CC(=O)c2ccccc21` [1,4-dihydronaphthalene-1,4-dione]: the IC50 in test [1] is 3.43 µM; against Amine oxidase, 8.4 µM.
Turning to `O=C1C(Cl)=C(Cl)C(=O)c2ccccc21` [2,3-dichloro-1,4-dihydronaphthalene-1,4-dione], the IC50 in test [1] was 2 µM; at Amine oxidase it was 2.61 µM.
Take `CC1=C(CCl)C(=O)c2ccccc2C1=O` [2-(chloromethyl)-3-methyl-1,4-dihydronaphthalene-1,4-dione (5f)]: on Amine oxidase, the IC50 amounted to 10.8 µM.
As for `O=C1C(Cl)=C(OCCCCO)C(=O)c2ccccc21` [2-chloro-3-(4-hydroxybutoxy)-1,4-dihydronaphthalene-1,4-dione (5h)], the IC50 in test [1] stood at 5.06 µM; against Amine oxidase, 3.06 µM.
On to `O=C1C(O)=C(Cl)C(=O)c2ccccc21` [2-chloro-3-hydroxy-1,4-dihydronaphthalene-1,4-dione (5g)], for which inhibition at Amine oxidase was half-maximal at 3.45 µM (IC50).
Still for that read-out and setting: under `O=C1C=CC(=O)c2c(O)ccc(O)c21` [5,8-dihydroxy-1,4-naphthoquinone] stands 0.86 µM.
For `CC(C)=CCC(O)C1=CC(=O)c2c(O)ccc(O)c2C1=O` (centres undefined) [5,8-dihydroxy-2-(1-hydroxy-4-methylpent-3-enyl)naphthalene-1,4-dione], the 50% inhibitory concentration (IC50) in test [1] turned out to be 1.5 µM; against Amine oxidase, 1.01 µM.
In the same order, the values of `O=C1C=CC(=O)c2c(O)cccc21` [5-hydroxy-1,4-dihydronaphthalene-1,4-dione] are 1.71 µM and 4.36 µM.
In the same order, the values of `CC1=CC(=O)c2ccccc2C1=O` [Vitamin K3] are 10.2 µM and 3.02 µM.
